According to US20260137788A1, “INFLAMMATION STIMULI RESPONSIVE PEPTIDE BRUSH POLYMERS” (NORTHWESTERN UNIVERSITY, priority 2021, published 2026):
Ends that are not written are not given here.

Experiments:
[1] = system: Sprague Dawley rats, IR MI; assay: Efficacy on LV function by MRI; format: in vivo, rat; settings: tail-vein injection 1-day post-MI, MRI 3 days and 5 weeks post-injection
Method: Methods 5.1: Assessing Efficacy of L-PLPMMPi on LV Function. Male and female Sprague Dawley rats undergo IR procedures as previously described in Example 2. Prior to surgery, all animals undergo magnetic resonance imaging (MRI) to establish a baseline for LV ejection fraction (EF), wall thickness, end diastolic volume (EDV), and end systolic volume (ESV). […] MRI is performed at 3 days and 5 weeks (n=7 per sex for saline, MMPi, L-PLP, and L-PLPMMPi treated animals with randomized groups for each harvest timepoint) post-injection to assess cardiac function via LV EF, wall thickness, EDV, and ESV. For power analysis, an a value of 0.05 and a power of 0.8 was used to determine experimental sample sizes with additional rats based on an expected 30% mortality from surgical procedures. A 2-way ANOVA with post-hoc Tukey Test is then performed with significance at α=0.05.

[2] = Dry state Transmission Electron Microscopy (TEM); format: physicochemical
Method: (§1) Characterization Results: The molar mass of both unlabeled and labeled AAK20 PLPs were analyzed by SDS PAGE using a polyacrylamide gel with a pore gradient of 4-15% (cat #: 4561083) and Precision Plus Kaleidoscope Protein Standard (cat #: 1610395). The mass of both AAK20 and Cy5.5-AAK20 samples were ˜20 kDa and found to correspond with the average molecular weight of an AAK PLP with a DP of 20 (FIG. 9A). […] The diffusion rate of AAK20 in deuterated water was analyzed by Diffusion Ordered Spectroscopy (DOSY) NMR. […] Additional physical characterization of AAK20 by dry state Transmission Electron Microscopy (TEM) was performed to provide complementary data to SDS PAGE, DLS, and DOSY NMR.

[3] = Diffusion Ordered Spectroscopy (DOSY) NMR diffusion rate; format: physicochemical; settings: in deuterated water
Method: ^1H Nuclear Magnetic Resonance (^1H NMR): ^1H NMR data was recorded on either a Bruker Avance III HD 500 MHz spectrometer, a Bruker Avance III 600 MHz spectrometer, or a Bruker Neo 600 MHz spectrometer. The 500 MHz spectrometer was primarily used for small molecule characterization, the Bruker Avance III 600 MHz spectrometer was used for polymerization kinetics studies, and the Bruker Neo 600 MHz spectrometer was used for diffusion ordered spectroscopy (DOSY) studies done on PLPs in deuterated buffered saline. ^1H NMR chemical shifts are given in reference to residual proton peaks from either the DMSO-d6 or the DMF-d7 solvent.
as §1

[4] = Dynamic Light Scattering (DLS) average diameter; format: physicochemical; settings: in PBS
Method: as §1

Compound | LV ejection fraction (EF), pre- vs post-MI (MRI) [1] | end diastolic volume (EDV), pre- vs post-MI (MRI) [1] | end systolic volume (ESV), pre- vs post-MI (MRI) [1] | wall thickness, pre- vs post-MI (MRI) [1] | morphology by dry state TEM [2] | diffusion rate by DOSY NMR [3] | average diameter by DLS [4]
CC(C)[C@H](NS(=O)(=O)c1ccc(-c2ccc(Br)cc2)cc1)C(=O)O [MMPi, PD166793] | decreased | increased | increased | negligible differences | – | – | –
AAK20: PLP made by ROMP of norbornene AAK monomer (SEQ ID NO: 142, AAKAAKAA) at 20 molar equivalence to Grubbs catalyst; unlabeled (AAKAAKAA-NH2; also: norbornene monomer polymerized by ROMP into PLP) | – | – | – | – | nanoscale globular assemblies | approximately 1×10^−6 cm^2/s | < 10 nm
